# Like-named read-outs stand apart in the source and are kept apart here.
# Experiments:
# [1] = target: T1, endogenous human B2 receptors (Homo sapiens, UniProt P30411); test: Antagonist potency at endogenous human B2 receptors
# T1 sequence (P30411 1-391): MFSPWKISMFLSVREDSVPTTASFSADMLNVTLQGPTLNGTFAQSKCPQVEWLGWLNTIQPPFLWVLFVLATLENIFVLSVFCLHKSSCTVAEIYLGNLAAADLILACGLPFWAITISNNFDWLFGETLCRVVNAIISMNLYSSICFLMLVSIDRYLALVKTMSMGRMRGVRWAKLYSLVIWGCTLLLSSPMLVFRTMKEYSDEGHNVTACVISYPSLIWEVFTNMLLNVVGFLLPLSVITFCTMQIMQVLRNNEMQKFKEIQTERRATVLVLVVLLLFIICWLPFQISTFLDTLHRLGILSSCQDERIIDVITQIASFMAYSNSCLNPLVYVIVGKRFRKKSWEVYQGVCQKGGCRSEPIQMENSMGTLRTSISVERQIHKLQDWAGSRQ
# [2] = Single ascending dose study in healthy volunteers, plasma PK (Example 2); type: in vivo, human; details: for concentration at 0.25 h: read-out: C0.25h; for Vd/F: read-out: Vz/F
# rat B2 receptor = target: T2, rat B2 receptor (Rattus norvegicus, UniProt P25023); test: Antagonist potency in cells expressing rat B2 receptor; type: cell-based; details: compared with human B2 receptor
# T2 construct: expressed in transfected cells
# T2 sequence (P25023 1-396): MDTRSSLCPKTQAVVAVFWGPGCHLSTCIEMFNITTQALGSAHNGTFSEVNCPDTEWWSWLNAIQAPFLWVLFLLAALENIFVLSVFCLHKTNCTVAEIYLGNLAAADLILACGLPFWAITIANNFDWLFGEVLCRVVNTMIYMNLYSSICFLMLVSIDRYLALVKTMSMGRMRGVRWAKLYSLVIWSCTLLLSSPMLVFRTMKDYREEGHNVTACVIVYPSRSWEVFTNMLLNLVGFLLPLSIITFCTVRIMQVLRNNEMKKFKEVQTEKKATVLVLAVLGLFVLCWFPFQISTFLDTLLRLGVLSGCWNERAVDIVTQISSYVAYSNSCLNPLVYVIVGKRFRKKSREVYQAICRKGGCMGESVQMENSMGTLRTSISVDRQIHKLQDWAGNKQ
# Source text: (§1) The bradykinin B2 receptor is well known for its species selective pharmacology (Paquet et al., Br. J. Pharmacol. (126), 1083-1090, 1999 (DOI: 10.1038/sj.bjp.0702403); Burgess et al., Br. J. Pharmacol. (129), 77-86, 2000 (DOI: 10.1038/sj.bjp.0703012)). […] Pharmacol. 11:916; DOI: 10.3389/fphar.2020.00916.
# human B2 receptor = target: T3, human B2 receptor (Homo sapiens, UniProt P30411); test: Antagonist potency in cells expressing human B2 receptor; type: cell-based
# T3 sequence (P30411 1-391): T1 sequence (P30411 1-391)
# Source text: as §1
# [3] = Drug-drug interaction trial with itraconazole, safety and tolerability (Example 5); type: in vivo, human; details: single 12 mg oral doses on Day 1 and Day 7 (with itraconazole)
# Source text: Thirteen healthy subjects were enrolled and completed the study.
# CYP3A4 = CYP3A4 (Homo sapiens, UniProt P08684); test: In vitro CYP3A4 substrate data; type: in vitro ADME
# CYP3A4, sequence (P08684 whole entry): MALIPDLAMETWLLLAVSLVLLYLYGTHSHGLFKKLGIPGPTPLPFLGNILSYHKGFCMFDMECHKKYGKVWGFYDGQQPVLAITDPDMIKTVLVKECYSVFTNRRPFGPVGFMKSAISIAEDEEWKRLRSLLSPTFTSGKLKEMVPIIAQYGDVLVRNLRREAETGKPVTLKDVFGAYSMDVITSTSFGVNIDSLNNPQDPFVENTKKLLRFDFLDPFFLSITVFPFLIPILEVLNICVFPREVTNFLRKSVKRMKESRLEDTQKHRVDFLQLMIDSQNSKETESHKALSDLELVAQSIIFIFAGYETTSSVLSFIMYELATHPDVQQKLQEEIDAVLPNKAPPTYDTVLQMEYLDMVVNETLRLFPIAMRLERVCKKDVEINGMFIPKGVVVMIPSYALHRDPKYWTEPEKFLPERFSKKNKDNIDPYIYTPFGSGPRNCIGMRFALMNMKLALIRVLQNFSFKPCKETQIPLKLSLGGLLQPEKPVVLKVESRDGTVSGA
# [4] = target: T4, cynomolgus monkey B2 receptor (Macaca fascicularis, UniProt A0A7N9CWN6); test: Antagonist potency in cells expressing cynomolgus monkey B2 receptor; type: cell-based; details: read-out: Kb value to antagonize BK activation
# T4 sequence (A0A7N9CWN6 1-391): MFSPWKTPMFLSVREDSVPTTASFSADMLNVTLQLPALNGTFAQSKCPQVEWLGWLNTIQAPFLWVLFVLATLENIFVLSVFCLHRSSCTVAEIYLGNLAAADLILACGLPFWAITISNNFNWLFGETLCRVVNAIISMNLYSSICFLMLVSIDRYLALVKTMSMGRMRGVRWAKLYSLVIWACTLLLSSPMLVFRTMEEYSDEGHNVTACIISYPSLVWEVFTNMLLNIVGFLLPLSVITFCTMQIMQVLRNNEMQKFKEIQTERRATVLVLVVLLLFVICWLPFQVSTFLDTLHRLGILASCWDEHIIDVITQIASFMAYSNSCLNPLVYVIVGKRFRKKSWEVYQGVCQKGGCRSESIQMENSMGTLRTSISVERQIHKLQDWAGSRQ
# Source text: as §1
# [5] = Ascending dose study 22-50 mg in healthy volunteers, safety and tolerability (Example 4); type: in vivo, human
# [6] = 22 mg, HCHF breakfast vs fasted
# [7] = human, plasma, oral, 1 mg, fasted, mean
# [8] = human, plasma, oral, 2 mg, fasted, mean
# [9] = human, plasma, oral, 4.5 mg, fasted, mean
# [10] = human, plasma, oral, 12 mg, fasted, mean
# [11] = human, plasma, oral, 22 mg, after HCHF breakfast, mean
# [12] = human, plasma, oral, 22 mg, fasted, mean
smiles,measurement,setting,value
[2H][C@@](C)(NC(=O)COC(F)F)c1cc(F)cc(Cl)c1COc1cccc2c(-c3ncnn3C)cc(C)nc12 [compound of formula (I)],antagonist potency at endogenous human B2 receptors,[1],350 pM
same,CL/F,"[2]; 1 mg, fasted, mean",42.3 L/h
same,CL/F,"[2]; 2 mg, fasted, mean",33.8 L/h
same,CL/F,"[2]; 4.5 mg, fasted, mean",37.6 L/h
same,CL/F,"[2]; 12 mg, fasted, mean",40.9 L/h
same,time therapeutically effective plasma levels maintained,"[2]; 22 mg, HCHF breakfast cohort",more than 12 h
same,time to reach therapeutically effective plasma levels,"[2]; 22 mg, HCHF breakfast cohort",≤ 15 min
same,higher AUClast after HCHF breakfast,[2]; [6],49%
same,lower Cmax after HCHF breakfast,[2]; [6],32%
same,CL/F,"[2]; 22 mg, after HCHF breakfast, mean",25.3 L/h
same,Mean (±SD) C12h,"[2]; 22 mg, fasted",8.34 ± 4.24 ng/mL
same,Mean C24h,"[2]; 22 mg, fasted",1.12 ± 0.786 ng/mL
same,CL/F,"[2]; 22 mg, fasted, mean",31.5 L/h
same,time to reach therapeutic efficacious threshold plasma concentration,[2]; all doses,≤ 15 min
same,time plasma levels maintained at therapeutic efficacious threshold,[2]; doses of 12 mg and 22 mg,approximately 12 h
same,Tmax,"[2]; human, plasma, oral, 1 mg to 22 mg, fasting, read-out: Median tmax in the dose range",0.5 to 1 h
same,Tmax,"[2]; human, plasma, oral, 1 mg to 22 mg, fasting, read-out: range of individual tmax values",0.25 to 1.02 h
same,AUC(0-t),[2]; [7],33 ng·h/mL
same,Cmax,[2]; [7],11.1 ng/mL
same,concentration at 0.25 h,[2]; [7],5.99 ng/mL
same,concentration at 12 h,"[2]; human, plasma, oral, 1 mg, fasted, mean, read-out: C12h",0.528 ng/mL
same,Vd/F,[2]; [7],190 L
same,half-life,"[2]; human, plasma, oral, 1 mg, fasted, mean, read-out: t1/2 (converted)",3.49 h
same,Tmax,"[2]; human, plasma, oral, 1 mg, fasted, median, read-out: tmax",0.5 h
same,AUC(0-t),[2]; [8],66 ng·h/mL
same,Cmax,[2]; [8],19.8 ng/mL
same,concentration at 0.25 h,[2]; [8],12.9 ng/mL
same,concentration at 12 h,"[2]; human, plasma, oral, 2 mg, fasted, mean, read-out: C12h",0.81 ng/mL
same,Vd/F,[2]; [8],181 L
same,half-life,"[2]; human, plasma, oral, 2 mg, fasted, mean, read-out: t1/2 (converted)",4.26 h
same,Tmax,"[2]; human, plasma, oral, 2 mg, fasted, median, read-out: tmax",0.75 h
same,AUC(0-t),[2]; [9],129 ng·h/mL
same,Cmax,[2]; [9],32.9 ng/mL
same,concentration at 0.25 h,[2]; [9],13 ng/mL
same,concentration at 12 h,"[2]; human, plasma, oral, 4.5 mg, fasted, mean, read-out: C12h",1.93 ng/mL
same,Vd/F,[2]; [9],222 L
same,half-life,"[2]; human, plasma, oral, 4.5 mg, fasted, mean, read-out: t1/2 (converted)",4.36 h
same,Tmax,"[2]; human, plasma, oral, 4.5 mg, fasted, median, read-out: tmax",1 h
same,AUC(0-t),[2]; [10],369 ng·h/mL
same,Cmax,[2]; [10],97.3 ng/mL
same,concentration at 0.25 h,[2]; [10],60.3 ng/mL
same,concentration at 12 h,"[2]; human, plasma, oral, 12 mg, fasted, mean, read-out: C12h",5.58 ng/mL
same,Vd/F,[2]; [10],235 L
same,half-life,"[2]; human, plasma, oral, 12 mg, fasted, mean, read-out: t1/2 (converted)",4.25 h
same,Tmax,"[2]; human, plasma, oral, 12 mg, fasted, median, read-out: tmax",0.5 h
same,Tmax,"[2]; human, plasma, oral, 22 mg, HCHF breakfast vs fasted, read-out: delay of median tmax after HCHF breakfast",~2 h
same,AUC(0-t),[2]; [11],1020 ng·h/mL
same,Cmax,[2]; [11],145 ng/mL
same,concentration at 0.25 h,[2]; [11],48.3 ng/mL
same,concentration at 12 h,"[2]; human, plasma, oral, 22 mg, after HCHF breakfast, mean, read-out: C12h",19.6 ng/mL
same,Vd/F,[2]; [11],180 L
same,half-life,"[2]; human, plasma, oral, 22 mg, after HCHF breakfast, mean, read-out: t1/2 (converted)",5.31 h
same,Tmax,"[2]; human, plasma, oral, 22 mg, after HCHF breakfast, median, read-out: tmax",3 h
same,AUC(0-t),[2]; [12],681 ng·h/mL
same,Cmax,[2]; [12],213 ng/mL
same,concentration at 0.25 h,[2]; [12],143 ng/mL
same,concentration at 12 h,"[2]; human, plasma, oral, 22 mg, fasted, mean, read-out: C12h",8.34 ng/mL
same,Vd/F,[2]; [12],252 L
same,half-life,"[2]; human, plasma, oral, 22 mg, fasted, mean, read-out: t1/2 (converted)",5.61 h
same,Tmax,"[2]; human, plasma, oral, 22 mg, fasted, median, read-out: tmax",0.75 h
same,concentration at 12 h,"[2]; human, plasma, oral, 22 mg, fed (HCHF breakfast), read-out: Mean (±SD) C12h",19.6 ± 10.7 ng/mL
same,concentration at 24 h,"[2]; human, plasma, oral, 22 mg, fed (HCHF breakfast), read-out: Mean C24h",5.39 ± 5.47 ng/mL
same,half-life,"[2]; human, plasma, po, single oral doses 1-22 mg, read-out: mean t1/2 between doses",3.5 to 5.6 h
same,"dose proportionality of PK (Cmax, AUClast, AUCinf)","[2]; single oral dose 1 mg to 22 mg, fasting",Dose proportional PK
same,fold less potent in antagonizing the rat B2 receptor,rat B2 receptor,more than 1000 fold
same,times more potent at human B2 receptor than icatibant,human B2 receptor,about 20 times
same,intrinsic agonist activity,human B2 receptor; B2 receptor,devoid of intrinsic agonist activity
same,Kb,"human B2 receptor; human B2 receptor, read-out: Kb value to antagonize BK activation",150 pM
same,antagonist potency at recombinant human B2 receptors,human B2 receptor; recombinant,150 pM
same,tolerability,[3],well tolerated with no related adverse events reported
same,CYP3A4 substrate,CYP3A4,substrate of CYP3A4
same,Kb,[4],1420 pM
same,"changes in vital signs, laboratory, or ECG parameters vs placebo",[5]; 22-50 mg single oral doses,no clinically significant changes
same,serious adverse effects,[5]; 22-50 mg single oral doses,no serious adverse effects reported
same,safety and tolerability,[5]; doses up to 40 mg under fasting and 50 mg under fed conditions,safe and well tolerated

# Source: patent US12629363B2, “Prophylaxis and treatment of angioedema” (PHARVARIS GMBH, priority 2020, dated 2026)
